Experimental data published in patent publication EP1228058B1, “BENZOPYRANYL GUANIDINE DERIVATIVES, PROCESS FOR PREPARATION THEREOF, AND PHARMACEUTICAL COMPOSITIONS CONTAINING THEM” (Dongbu Hannong Chemical Co., Ltd., priority 1999, dated 2001).
Where two headings read alike, the source gives them in different places.

Legend:
[1] = test system: ischemic heart models of beagle dogs; test: Heart protective (anti-ischemic) activity in ischemic heart models of anesthetized beagle dogs; format: in vivo; conditions: total dose 2 mg/kg infused i.v. over 40 min, 90 min occlusion, 5 h reperfusion
Procedure: In order to determine whether the compounds of the formula 1 are protective for the ischemic hearts of larger animals, experiments determining the anti-ischemic effects of the compounds on beagle dogs were conducted as follows. The experiments on beagle dogs followed the method of Grover et al.' (G. J. Grover et al., J. Cardiovasc. Pharmacol. 25, 40 (1995)).
After being anesthetized by an intravenous injection of pentobarbital at a dose of 35 mg/kg, male beagle dogs (8-12 kg) were further infused with pentobarbital sodium at a dose of 3-4 mg/kg through the right cephalic vein throughout the experiments, so as to keep the anesthesia constant. […] The heart rate was measured by a tachometer, such as that manufactured by Gould Inc., OH, U.S.A., identified as Biotachometer. In addition, all of the changes occurring during the experiment were continuously recorded through the Gould 2000 chart recorder, manufactured by Gould Inc.
The fifth intercostal space was incised to open the thorax and the LAD was separated from its surrounding tissues. […] The LAD part upstream of the silk ligature was isolated from adjacent tissues and the blood flow was measured quantitatively. […] Using polygraph such as Grass Model 7E, the electrocardiogram was measured and read (Lead II). […]

A7r5 = test: Inhibition of A7r5 mediated LDL oxidation (MDA); format: cell-based, rat; conditions: Rattus norvegicus; for inhibition at 100 µM: 10^-4 M; for inhibition at 10 µM: 10^-5 M; for inhibition at 1 µM: 10^-6 M
Procedure: A7r5 (ATCC CRL-1444, smooth muscles, thoracic aorta, BDIX rat) cells were cultured in 24 well plates, using the medium of DMEM (Dulbecco's modified Eagle's Medium) supplemented with 10% heat-inactivated FBS (fetal bovine serum) and 1% antibiotics. Confluent A7r5 from plates were washed with phosphate-buffered solution, and DMEM with 10% FBS and 1% antibiotics was added in a total volume of 0.5 ml/well. Cells (2 x 10^5 cells/ml) were preincubated without and with either test compounds (10^-6 - 10^-4 M) or Tocopherol (10^-6 - 10^-4 M) at 37 °C for 30 min. Then, A7r5 alone or A7r5 plus H2O2 (10^-7 M) were exposed to LDL (100 ug/ml) for 24 hr.
The inhibitory effect of the test compounds against the lipid peroxidation was evaluated by calculating MDA reduction rate of the test compounds compared with that of the control group same as the above example 5 (2).

[2] = ORAC (oxygen-radical absorbance capacity) assay; format: biochemical; conditions: 1 ORAC unit = net protection by 1 uM Trolox
Procedure: The method utilized β-PE (β-phycoerythrin) as an indicator protein, and AAPH (2,2'-azobis(2-amidinopropane) dihydrochloride) as a peroxy radical generator. Reaction mixtures consisted of test compounds (10^-6M and 10^-4M), β-PE (1.76 x 10^-8M), and AAPH (3 x 10^-3 M) in 75 mM phosphate buffer (pH 7.0). A final volume of 2 ml was used in 24 well plates. Test compounds were first dissolved in acetone and then added to the reaction mixture. Once AAPH was added, the reaction was initiated at 37 °C and the fluorescence (485 nm excitation, 590 nm emission) was measured every 5 min using Fluorescence reader (FL600, Biotek Instrument). The ORAC units were calculated based on the area under the fluorescence curve of β-PE in the presence of the test compound compared to the area generated by 1 uM Trolox. 1 ORAC unit represents the net protection provided by 1 uM Trolox.

[3] = A7r5 alone, LDL 100 ug/ml, 24 hr, read-out: % Inhibition LDL
[4] = A7r5 plus H2O2 (10^-7 M), read-out: % Inhibition LDL + H2O2 (10^-7M)

| Structure (SMILES) | Anti-ischemic Activity (in vivo, dogs) (2 mg/kg/40 i.v.) min,i.v.) IZ/AAR (%) [1] | inhibition at 100 µM (A7r5; [3]) | inhibition at 100 µM (A7r5; [4]) | inhibition at 10 µM (A7r5; [3]) | inhibition at 10 µM (A7r5; [4]) | inhibition at 1 µM (A7r5; [3]) | inhibition at 1 µM (A7r5; [4]) | ORAC units ([2]; Conc. 10^-4 M) | ORAC units ([2]; Conc. 10^-6 M) |
| --- | --- | --- | --- | --- | --- | --- | --- | --- | --- |
| COC(OC)[C@@]1(C)Oc2ccc([N+](=O)[O-])cc2[C@H](NC(=NC#N)NCc2ccccc2)[C@H]1O [Example 24, (2S, 3R, 4S)-N''-cyano-N-(6-nitro-3,4-dihydro-3-hydroxy-2-methyl-2-dimethoxymethyl-2H-benzopyran-4-yl)-N'-benzylguanidine] | 28.03% |  |  |  |  |  |  |  |  |
| COC(OC)[C@@]1(C)Oc2ccc(N)cc2[C@@H](NC(=NC#N)NCc2ccccc2)[C@@H]1O [Example 40, (2S, 3S, 4R)-N''-cyano-N-(6 - amino-3,4-dihydro-3-hydroxy-2-methyl-2-dimethoxymethyl-2H-benzopyran-4-yl)-N'-benzylguanidine] |  | 57.5% | 64.3% | 51.4% | 62.5% | 40.9% | 49.7% | 3.250 ORAC units | 2.047 ORAC units |
